Laboratory results: patent publication US4435583A, “2-Halo-substituted monic acid A useful as antibacterial compounds” (Beecham Group p.l.c., priority 1981, dated 1984)
≈ marks a conversion by molar mass, not a printed value.

How the values were obtained:
Type in all cases: cell-based
[1] = test system: M. suipneumoniae NB12; assay: In vitro anti-mycoplasmal MIC; settings: Friis broth, 0.9% agarose, 6 days, 37° C.
[2] = test system: M. suipneumoniae LABER; assay: In vitro anti-mycoplasmal MIC; settings: Mesomycoplasma hyopneumoniae, 144 h, Friis broth, 0.9% agarose, 6 days, 37° C.
[3] = test system: M. suipneumoniae HK(2); assay: In vitro anti-mycoplasmal MIC; settings: Friis broth, 0.9% agarose, 6 days, 37° C.
[4] = test system: M. hyorhinis ATCC 25021; assay: In vitro anti-mycoplasmal MIC; settings: Mesomycoplasma hyorhinis, ATCC25021, 144 h, Friis broth, 0.9% agarose, 6 days, 37° C.
[5] = test system: Haemophilus influenzae Wy21; assay: MIC against human bacteria; settings: Haemophilus influenzae, WY21, 18 h, nutrient agar, 5% chocolated horse blood, 37° C.
Protocol: (§1) The values were determined by serial dilutions in nutrient agar with 5% chocolated horse blood after incubations for 18 hours at 37° C.

[6] = test system: E. coli NCTC 10418; assay: MIC against human bacteria; settings: Escherichia coli, NCTC10418, nutrient agar, 5% chocolated horse blood, 18 hours, 37° C., read-out: MIC
Protocol: as §1

[7] = test system: Ps. aeruginosa NCTC 10662; assay: MIC against human bacteria; settings: Pseudomonas aeruginosa, NCTC10662, nutrient agar, 5% chocolated horse blood, 18 hours, 37° C., read-out: MIC
Protocol: as §1

[8] = test system: Bacillus subtilis 6633; assay: MIC against human bacteria; settings: nutrient agar, 5% chocolated horse blood, 18 hours, 37° C.
Protocol: as §1

[9] = test system: Staph. aureus Russell; assay: MIC against human bacteria; settings: nutrient agar, 5% chocolated horse blood, 18 hours, 37° C.
Protocol: as §1

[10] = test system: K. aerogenes A; assay: MIC against human bacteria; settings: Klebsiella aerogenes, nutrient agar, 5% chocolated horse blood, 18 hours, 37° C., read-out: MIC
Protocol: as §1

[11] = test system: Neisseria catarrhalis 1502; assay: MIC against human bacteria; settings: nutrient agar, 5% chocolated horse blood, 18 hours, 37° C.
Protocol: as §1

[12] = test system: Strep. faecalis I; assay: MIC against human bacteria; settings: Enterococcus faecalis, nutrient agar, 5% chocolated horse blood, 18 hours, 37° C., read-out: MIC
Protocol: as §1

[13] = test system: Past. multocida 1633; assay: MIC against human bacteria; settings: nutrient agar, 5% chocolated horse blood, 18 hours, 37° C.
Protocol: as §1

[14] = test system: E. coli ESS; assay: MIC against human bacteria; settings: nutrient agar, 5% chocolated horse blood, 18 hours, 37° C.
Protocol: as §1

[15] = test system: Strep. pyrogenes R80/421-A; assay: MIC against human bacteria; settings: nutrient agar, 5% chocolated horse blood, 18 hours, 37° C.
Protocol: as §1

[16] = test system: Strep. pneumoniae CN33; assay: MIC against human bacteria; settings: nutrient agar, 5% chocolated horse blood, 18 hours, 37° C.
Protocol: as §1

[17] = test system: Strep. 641848-C; assay: MIC against human bacteria; settings: nutrient agar, 5% chocolated horse blood, 18 hours, 37° C.
Protocol: as §1

[18] = test system: Sarcina lutea 8340; assay: MIC against human bacteria; settings: Micrococcus luteus, nutrient agar, 5% chocolated horse blood, 18 hours, 37° C., read-out: MIC
Protocol: as §1

[19] = test system: Strep. 2788-B; assay: MIC against human bacteria; settings: nutrient agar, 5% chocolated horse blood, 18 hours, 37° C.
Protocol: as §1

[20] = test system: Staph. aureus W2827; assay: MIC against human bacteria; settings: nutrient agar, 5% chocolated horse blood, 18 hours, 37° C.
Protocol: as §1

CCOC(=O)C(F)=C(C)CC1OCC(CC2OC2C(C)C(C)O)C(O)C1O [Example 1, Ethyl-4-[5S-(2S,3S-epoxy-5S-hydroxy-4S-methylhexyl)-3R, 4R-dihydroxytetrahydropyran-2S-yl]-2-fluoro-3-methylbut-2(Z)-enoate]
MIC [1]: 0.5 µg/mL (≈ 1.28 µM) | MIC [2]: 0.25 µg/mL (≈ 0.64 µM) | MIC [3]: 0.5 µg/mL (≈ 1.28 µM) | MIC [4]: 0.25 µg/mL (≈ 0.64 µM) | MIC [5]: 0.25 µg/mL (≈ 0.64 µM) | MIC [6]: > 100 µg/mL | MIC [7]: > 100 µg/mL | MIC [8]: 2.5 µg/mL (≈ 6.4 µM) | MIC [9]: 1.0 µg/mL (≈ 2.56 µM) | MIC [10]: > 100 µg/mL | MIC [11]: 0.5 µg/mL (≈ 1.28 µM) | MIC [12]: > 100 µg/mL | MIC [13]: 1.0 µg/mL (≈ 2.56 µM) | MIC [14]: 5.0 µg/mL (≈ 12.8 µM) | MIC [15]: 1.0 µg/mL (≈ 2.56 µM) | MIC [16]: 2.5 µg/mL (≈ 6.4 µM) | MIC [17]: 5.0 µg/mL (≈ 12.8 µM) | MIC [18]: > 100 µg/mL | MIC [19]: 10.0 µg/mL (≈ 25.6 µM) | MIC [20]: 1.0 µg/mL (≈ 2.56 µM)
